Experimental data from US10238667B2, “Vitamin D receptor/SMAD genomic circuit gates fibrotic response” (Salk Institute for Biological Studies, priority 2013, dated 2019).

System: rat HSCs
Test: Microarray of culture-induced activation of HSCs
Format: cell-based
Details: 3 days culture on plastic, 10 nM 1,25(OH)2D3
Protocol: VDR Signaling Suppresses TGFβ-induced Pro-Fibrotic Genes. (A) Heat map comparing 519 differentially expressed genes in freshly isolated rat HSCs (quiescent HSCs, Q-HSCs), activated HSCs (A-HSCs, 3 days culture on plastic) and cells cultures in the presence of 10 nM 1,25(OH)2D3 (A-HSCs+1,25(OH)2D3). Euclidean clustering of both rows and columns using log2 transformed microarray expression data, n=2 per treatment group. […] Data represents the mean±SEM of at least three independent experiments performed in triplicate. Asterisks denote statistically significant differences (Student's unpaired t-test, *p<0.05, **p<0.01). HSCs were isolated from 10-week old male C57BL/6J mice and Wistar rats by in situ pronase, collagenase perfusion and single-step Histogenz gradient as previously reported (Hendriks et al., 1985; Knook et al., 1982). Isolated HSCs were cultured in DMEM (Mediatech) containing 20% FBS (Hyclone) on 6-well plates for 40 hours prior to end-point assays. Total RNA from primary rat or mouse HSCs was isolated using the RNeasy mini kit (Qiagen) according to standard protocols. RNA integrity and quality was assessed using the Agilent Bioanalyzer and prepared for hybridization to Illumina rat or mouse gene expression arrays according to standard Illumina protocols. Feature extraction was performed using the Illumina GenomeStudio software. […]

C=C1/C(=C\C=C2/CCC[C@]3(C)C([C@H](C)CCCC(C)(C)O)CC[C@@H]23)C[C@@H](O)C[C@@H]1O (stereo partly drawn) [1,25(OH)2D3, 1α,25 dihydroxyvitamin D3]
culture-induced activation of HSCs (transcriptome): attenuated
